# Experiments:
# Format in all cases: cell-based, human
# [1] = tested on: reprogrammed DPSCs; experiment: FACS of reprogrammed DPSCs stained with BDL-E5 at 7 dpn and iPS colony count; settings: DPSCs sorted at 7 dpn, seeded on MEF, two weeks
# Description: (§1) Reprogrammed ASCs and DPSCs, AiPS and DiPS on D7 or D14 dpn were stained with BDL-E5 for 1 hour and then harvested using TrypLE and resuspended in 1×PBS. The cells were then subjected to FACS in the MoFlo XDP Cell Sorter (Beckman Coulter) under sterile conditions.
# Different DPSC cell lines were reprogrammed using the feeder-free episomal method, incubated with BDL-E5, and subjected to fluorescence activated cell sorting (FACS) at 7 dpn. […] FIG. 10A (i) and (ii) represents the unstained DPSCs.
# The cells were allowed to grow for the next two weeks until colonies appeared.
# [2] = tested on: reprogramming DPSCs at 7 dpn; experiment: Fluorescent subcellular organelle co-staining; settings: confocal; ER, Golgi, lysosome, mitochondria marker dyes
# Source text: Reprogrammed DPSCs at 7 dpn on MG were stained for cell organelle marker dyes (Molecular Probes) for endoplasmic reticulum (ER) (ER-Tracker™ Green (BODIPY® FL Glibenclamide)), Golgi complex (BODIPY® FL C5-Ceramide (N-(4,4-Difluoro-5,7-Dimethyl-4-Bora-3a,4a-Diaza-s-Indacene-3-Pentanoyl)Sphingosine)), lysosome (LysoTracker® Green DND-26), or mitochondria (MitoTracker® Green FM). Confocal images were taken to visualize the staining.
# To determine the subcellular organelle localization of BDL-E5 in reprogramming cells, 7 dpn DPSCs on MG were stained for BDL-E5 and organelle marker dyes for endoplasmic reticulum (ER), Golgi complex, lysosome, or mitochondria.
# [3] = tested on: DPSCs; experiment: Proliferation assay (Trypan Blue viable cell count); settings: 500 nM
# Description: To ensure that BDL-E5 was not toxic to the cells, DPSCs were incubated with BDL-E5 (500 nM) for 48 h and 72 h and viable cells were counted in a haemocytometer using the Tryphan Blue method. DPSCs in which CREB1 was over-expressed or silenced were also counted at 72 h post nucleofection to determine if gene manipulation has affected the cell proliferation.
# [4] = tested on: reprogramming DPSCs; experiment: Staining of DPSCs reprogrammed with retroviral Yamanaka factors on MEF; settings: retroviral OCT4, SOX2, KLF4, C-MYC
# Source text: iPS cells were also generated from DPSCs with the traditional protocol involving retroviral vectors expressing OCT4, SOX2, KLF4, and C-MYC (Sugii, et al. (2011). Nature Protoc 6(3):346-358). BJ human neonatal fibroblasts were reprogrammed using lentiviral OCT4, SOX2, KLF4, and C-MYC as described previously (Toh, et al. (2016). Cell Rep 15(12):2597-2607).
# We also tested whether BDL-E5 worked for commonly used reprogramming methods and cell type. DPSCs were infected with retroviral vectors expressing four Yamanaka factors, and plated onto MEF. […] In addition, BJ human fibroblasts were reprogrammed with lentiviral Yamanaka factors.
# [5] = tested on: reprogrammed SC-ASCs and VS-ASCs; experiment: FACS of reprogrammed ASCs stained with BDL-E5 at 14 dpn and iPS colony count; settings: for iPS colonies from BDL-E5+ versus BDL-E5- sorted cells: seeded on MEF; for percentage of cells staining negatively / percentage of cells staining positively: FACS at 14 dpn
# Source text: WAT was isolated from subcutaneous (abdominal region) and visceral (omental region) depots from 2 human volunteers (S15-S16, undergoing bariatric surgery, with approval by the National Healthcare Group Domain Specific Review Board at National Healthcare Group, Singapore) as described previously (Ong, et al. (2014). Stem Cell Reports 2, 171-179; Takeda, et al. (2016). Diabetes 65, 1164-1178). […]. ASCs were isolated from WAT and cultured, as previously described (Sugii, et al. (2011). Nature Protoc 6, 346-358). Cells only up to passage 5 were used for experiments. MSC cell surface markers and multipotency of ASCs used herein were confirmed by flow cytometry and differentiation assays, respectively (Ong, et al. (2014). Stem Cell Reports 2, 171-179).
# as §1
# Next, the inventors investigated whether the probe was useful in assisting reprogramming selection of obese patient-derived ASCs from subcutaneous (SC) and visceral (VS) fat depots. […] FIG. 10A (iii) and (iv) represents the unstained ASCs. BDL-E5^+ and BDL-E5^− cells sorted using FACS were seeded onto MEF-coated plates.
# To investigate the quality of the BDL-E5^+ generated iPS cells, the iPS colonies were passaged for several generations. As shown in FIG. 10B(i), ASC-derived BDL-E5^+ colonies remained well self-renewed and TRA-1-60 positive for subsequent passages.
smiles,measurement,setting,value
COc1cc(F)c(/C=C/c2cc(C)c3n2[B-](F)(F)[N+]2=C(CCC(=O)NCCN(C)C)C=CC2=C3)cc1OC [BDL-E5],iPS colonies from BDL-E5+ (top 10%) versus BDL-E5- (bottom 10%) sorted cells,[1],gave rise to an increased number of iPSCs
same,subcellular organelle localization,[2],co-localize significantly with Golgi complex staining
same,toxicity to cells,[3],not toxic
same,earliest time of staining of reprogramming cells,[4],7 dpi
same,iPS colonies from BDL-E5+ versus BDL-E5- sorted cells,[5]; SC-ASCs sorted at 14 dpn,gave rise to more colonies than the BDL-E5^− population
same,percentage of cells staining negatively,[5]; SC-ASCs,~11%
same,percentage of cells staining positively,[5]; SC-ASCs,~33%
same,iPS colonies from BDL-E5+ versus BDL-E5- sorted cells,[5]; VS-ASCs sorted at 14 dpn,at least some BDL-E5^+ VS-ASCs gave rise to iPS colonies
same,percentage of cells staining negatively,[5]; VS-ASCs,~24%
same,percentage of cells staining positively,[5]; VS-ASCs,~19%
